Assays:
[1] = molecular target: HBV C150Bo capsid protein (mutant C150 HBV core protein labeled with BODIPY-FL) (Hepatitis B virus genotype D subtype adw, UniProt P03147, C107A/C48A/C61A/R150C); test: HBV assembly assay (fluorescence quenching in vitro capsid assembly); assay type: biochemical; conditions: at about 10 μM; 50 mM Hepes pH 7.5, 150 mM NaCl, 1 hour room temperature
[2] = tested on: HBV replication in HepG2-2.2.15 cells; test: Inhibition of HBV replication dot-blot assay; assay type: cell-based; conditions: Hepatitis B virus, 144 h, six days, reduction in HBV DNA levels
Description: Compounds active in the HBV assembly assay are tested for their activity and toxicity in cellular assay. In the first anti-viral assay, the ability of compounds to inhibit HBV replication in an HBV-producing hepatoma cell line using the dot-blot method is evaluated.
Briefly, confluent monolayers of HepG2-2.2.15 cells are incubated with complete medium containing various concentrations of a test compound. Three days later, the culture medium is replaced with fresh medium containing the appropriately diluted test compound. Six days following the initial administration of the test compound, the cell culture supernatant is collected, and cell lysis is performed. The samples are applied onto Nylos membranes and DNA is immobilized to the membrane by UV cross-linking. After pre-hybridization, the HBV probe is added and the hybridization is performed overnight. The membranes are exposed to the Kodak films; antiviral activity is calculated from the reduction in HBV DNA levels (EC50). The EC50 for antiviral activity is calculated from the dose response curves of active compounds. Assay performance over time is monitored by the use of the standard positive control compounds ETV, BAY 41-4109, and HAP-1.
Selected compounds were tested for their activity and toxicity in cellular assay. In the first anti-viral assay, the ability of compounds to inhibit HBV replication in an HBV-producing hepatoma cell line using the dot-blot method was evaluated.
Confluent monolayers of HepG2-2.2.15 cells were incubated with complete medium containing various concentrations of a test compound. Three days later, the culture medium was replaced with fresh medium containing the appropriately diluted test compound. Six days following the initial administration of the test compound, the cell culture supernatant was collected, and cell lysis was performed. The samples were applied onto Nylos membranes and DNA was immobilized to the membrane by UV cross-linking. After pre-hybridization, the HBV probe was added and the hybridization was performed overnight. The membranes were exposed to the Kodak films; antiviral activity was calculated from the reduction in HBV DNA levels (EC50). The EC50 for antiviral activity was calculated from the dose response curves of active compounds. Assay performance over time was monitored by the use of the standard positive control compounds ETV, BAY 41-4109, and HAP-1.

Sequence of HBV C150Bo capsid protein (mutant C150 HBV core protein labeled with BODIPY-FL) (P03147 1-150 C48A/C61A/C107A/R150C): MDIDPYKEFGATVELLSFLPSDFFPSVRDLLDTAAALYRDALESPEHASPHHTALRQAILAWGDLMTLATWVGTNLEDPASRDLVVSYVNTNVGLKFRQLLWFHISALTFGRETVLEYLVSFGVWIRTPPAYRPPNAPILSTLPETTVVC

Row | SMILES | Activity (HBV assembly assay) [1] | inhibition at 10 µM [2] [%]
1 | O=C(Nc1cc(F)c(F)c(F)c1)c1ccc(F)c(S(=O)(=O)N2CCC[C@H](O)C(F)C2)c1 (stereo partly drawn) [Compound 1829_D2] | + (‘+’ indicates >50% activity at about 10 μM) | > 50
2 | COc1ccc(C(=O)Nc2ccc(F)c(F)c2)cc1S(=O)(=O)N1CCOCC(O)C1 (stereo not drawn) [Compound 1979] | + (‘+’ indicates >50% activity at about 10 μM) | > 50
3 | O=C(Nc1cc(F)c(F)c(F)c1)c1ccc(F)c(S(=O)(=O)N2CCC[C@@H](O)C(F)C2)c1 (stereo partly drawn) [Compound 1829_D1] | + (‘+’ indicates >50% activity at about 10 μM) | > 50
4 | O=C(Nc1ccc(F)c(Cl)c1)c1ccc(F)c(S(=O)(=O)N2CC(O)CC3CC3C2)c1 (stereo not drawn) [Compound 2492] | + (‘+’ indicates >50% activity at about 10 μM) | > 50
5 | O=C(Nc1ccc(F)c(Cl)c1)c1ccc(F)c(S(=O)(=O)N2CCC[C@H](O)CC2)c1 [Compound 1766_E2] | + (‘+’ indicates >50% activity at about 10 μM) | > 50
6 | O=C(Nc1cc(F)c(F)c(F)c1)c1ccc(F)c(S(=O)(=O)N2CCCCC(F)(F)C2)c1 [Compound 2121] | + (‘+’ indicates >50% activity at about 10 μM) | > 50
7 | CC(=O)O[C@@H]1CC[C@H](O)CN(S(=O)(=O)c2cc(C(=O)Nc3cc(F)c(F)c(F)c3)ccc2F)C1 [Compound 2618_D2] | + (‘+’ indicates >50% activity at about 10 μM) | > 50
8 | O=C(Nc1ccc(F)c(F)c1)c1ccc(CF)c(S(=O)(=O)N2CCCC(O)CC2)c1 (stereo not drawn) [Compound 1917] | + (‘+’ indicates >50% activity at about 10 μM) | > 50
9 | O=C(Nc1cc(F)c(F)c(F)c1)c1ccc(F)c(S(=O)(=O)N2C[C@H](O)CC[C@H](O)C2)c1 [Compound 2617_D2] | + (‘+’ indicates >50% activity at about 10 μM) | > 50
10 | Cc1ccc(C(=O)Nc2cc(F)c(F)c(F)c2)cc1S(=O)(=O)N1CCCCC(O)C1 (stereo not drawn) [Compound 1915] | + (‘+’ indicates >50% activity at about 10 μM) | > 50
11 | O=C(Nc1cc(F)c(F)c(F)c1)c1ccc(F)c(S(=O)(=O)N2CCOCC(O)(C3CC3)C2)c1 (stereo not drawn) [Compound 1987] | + (‘+’ indicates >50% activity at about 10 μM) | > 50
12 | CC(=O)O[C@@H]1CC[C@@H](O)CN(S(=O)(=O)c2cc(C(=O)Nc3cc(F)c(F)c(F)c3)ccc2F)C1 [Compound 2618_D1] | + (‘+’ indicates >50% activity at about 10 μM) | > 50
13 | O=C(Nc1ccc(F)c(Cl)c1)c1ccc(CO)c(S(=O)(=O)N2CCCCC(F)C2)c1 (stereo not drawn) [Compound 1768] | + (‘+’ indicates >50% activity at about 10 μM) | > 50
14 | CC(=O)O[C@@H]1CC[C@H](O)CN(S(=O)(=O)c2cc(C(=O)Nc3ccc(F)c(Cl)c3)ccc2F)C1 [Compound 2619_D2] | + (‘+’ indicates >50% activity at about 10 μM) | > 50
15 | O=C(Nc1ccc(F)c(Cl)c1)c1ccc(F)c(S(=O)(=O)N2CCOC[C@@H](O)C2)c1 [Compound 1893_E1] | + (‘+’ indicates >50% activity at about 10 μM) | > 50
16 | CC1(O)CCCCN(S(=O)(=O)c2cc(C(=O)Nc3cc(F)c(F)c(F)c3)ccc2F)C1 (stereo not drawn) [Compound 1892] | + (‘+’ indicates >50% activity at about 10 μM) | > 50
17 | O=C(Nc1ccc(F)c(F)c1)c1ccc(F)c(S(=O)(=O)N2CCOCC(O)C2)c1 (stereo not drawn) [Compound 1894] | + (‘+’ indicates >50% activity at about 10 μM) | > 50
18 | O=C(Nc1cc(F)c(F)c(F)c1)c1ccc(CF)c(S(=O)(=O)N2CCCCCC2)c1 [Compound 2002] | + (‘+’ indicates >50% activity at about 10 μM) | > 50

From patent publication US9181288B2, “Azepane derivatives and methods of treating hepatitis B infections” (Novira Therapeutics, Inc., priority 2014, dated 2015)
